For five compounds, Inhibition results are on record in ChEMBL document CHEMBL1121542, “Beta-adrenergic blocking agents. 20. (3-Hydroxyprop-1-enyl)-substituted 1-(aryloxy)-3-(alkylamino)propan-2-ols” (J Med Chem, 1980).

Test [1] deals with Adrenergic receptor beta. Put plainly: Compound was evaluated in vivo for beta-Adrenoceptor blocking potency in cat and is expressed as total dose, infused over a period of 30 minutes, causing 50% inhibition of the tachycardia (iv administration); NA means not active. Type of test: functional, organism-based. As to conditions: Felis catus.
Test [2] deals with Adrenergic receptor beta (Homo sapiens) (UniProt P08588+P07550+P13945). Put plainly: Compound was evaluated in vivo for beta-Adrenoceptor blocking potency in cat measured as the degree (percent) of blockade of the vasopressor response at the dose level. Type of test: functional, organism-based. As to conditions: Felis catus; target entry is the homologue from another species.

Calls of active or inactive are those of the source. No cut-off for these calls is given here.

As usually defined, the Inhibition is the drop in the measured response relative to a control, in per cent. For `CCOc1cc(/C=C/CO)ccc1OCC(O)CNC(C)C` (stereo not given), the Inhibition result in test [1] is “inactive”. For `C=CCc1cc(/C=C/CO)ccc1OCC(O)CNC(C)(C)C` (stereo not given), the Inhibition entry in test [1] is “inactive”. In test [2], `CC(C)(C)NCC(O)COc1ccc(/C=C/CO)cc1Cl` (stereo not given) displayed an Inhibition of 76%.

As to `CC(C)NCC(O)COc1cc(/C=C/CO)ccc1Br` (stereo not given), the Inhibition result in test [1] was “inactive”. Same read-out and setting: as for `COc1ccc(/C=C/CO)cc1OCC(O)CNC(C)C` (stereo not given), the entry is “inactive”.
